Laboratory results from PubChem BioAssay AID1159558 (GlaxoSmithKline (GSK), 2015).
pIC50: −log10 of the molar value. Activity calls are given as the source filed them.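 How the source made its calls: active means IC50 against T. cruzi CYP51 below a set limit; inactive means the rest.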

Biological target: Sterol 14-alpha demethylase (Trypanosoma cruzi (strain CL Brener)) (UniProt Q7Z1V1)
Test: T. cruzi sterol 14-alpha demethylase inhibition – biochemical, recombinant enzyme, mechanism study for T. cruzi antiparasitic project, dose response (AID 1159558);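 further: enzyme in bacterial membranes with Anopheles gambiae CYP reductase and cytochrome b5 partners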
Conditions: recombinant T. cruzi CYP51, BOMCC fluorescence

Sequence of Sterol 14-alpha demethylase (Trypanosoma cruzi (strain CL Brener)) (Q7Z1V1 whole entry, looked up): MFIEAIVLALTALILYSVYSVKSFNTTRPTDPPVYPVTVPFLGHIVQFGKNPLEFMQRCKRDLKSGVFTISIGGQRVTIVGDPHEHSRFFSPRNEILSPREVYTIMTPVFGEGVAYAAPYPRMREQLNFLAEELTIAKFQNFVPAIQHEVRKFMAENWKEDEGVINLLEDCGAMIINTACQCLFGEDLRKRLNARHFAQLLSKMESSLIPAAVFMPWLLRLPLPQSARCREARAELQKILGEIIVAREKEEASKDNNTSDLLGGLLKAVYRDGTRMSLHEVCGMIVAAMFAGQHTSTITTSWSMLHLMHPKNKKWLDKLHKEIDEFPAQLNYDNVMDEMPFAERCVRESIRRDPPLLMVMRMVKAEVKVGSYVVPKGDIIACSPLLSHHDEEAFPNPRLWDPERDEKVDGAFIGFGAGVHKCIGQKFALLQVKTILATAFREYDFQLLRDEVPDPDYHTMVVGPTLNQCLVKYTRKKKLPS

SMILES | pIC50 | IC50
Cc1nc2c(-c3n[nH]c(-c4ccccc4N)n3)cccn2c1C | 5.49 | 
COc1cc(Nc2nccc(Nc3onc(C)c3C)n2)cc(S(=O)(=O)C2CCOCC2)c1 | 5.10 | 
O=S(=O)(NCC(c1cccnc1)N1CCN(c2ccccc2F)CC1)c1ccc(F)cc1 (stereo not given) | 7.10 | 
O=C(NCCc1cccnc1)c1ccc(-c2ccccc2F)o1 | 7.20 | 
C=CCn1nc([N+](=O)[O-])nc1Oc1ccc(Cl)cc1Cl | 4.70 | 
O=C(NCC1CCCCC1)c1cnns1 |  | > 100 µM (inactive)
CCCN(Cc1ccc(OC)c(OC)c1)Cc1cc(=O)c2c(C)cc(C)cc2[nH]1 |  | > 100 µM (inactive)
CC(=O)Nc1ccc(-c2noc(CC3CCCN(Cc4cccc(F)c4C)C3)n2)cc1 (stereo not given) |  | > 100 µM (inactive)
COc1ccc(S(=O)(=O)Nc2ccccc2OC)cc1NC(=O)CCCc1c[nH]c2ccccc12 |  | > 100 µM (inactive)
CCCn1c(NC(=O)CCn2cc(Br)cn2)nc2ccccc21 | 5.00 | 
COCCn1cnc2cc(NC(=O)C3CCCCC3)cc(C(=O)N3CCc4sccc4C3)c21 | 4.30 | 
COc1ccc(NS(=O)(=O)c2cc(-c3cc(C)[nH]n3)ccc2C)cc1OC | 4.40 | 
CCS(=O)(=O)c1cccc(C(=O)Nc2nc(-c3ccccn3)cs2)c1 | 4.20 | 
O=C(Nc1n[nH]c(-c2ccccn2)n1)C1CC1c1ccccc1 (stereo not given) |  | > 100 µM (inactive)
CN(Cc1nc2ccccc2s1)C(=O)C=Cc1cc2ccccc2o1 | 6.80 | 
c1cncc(CN(Cc2ccco2)Cc2cn[nH]c2-c2cccs2)c1 | 7.10 | 
CC(C)Nc1nccc(-c2c(-c3ccc(F)cc3)ncn2C2CCOCC2)n1 |  | > 100 µM (inactive)
Cc1nc(-c2nc(NCc3ccc(Cl)cc3)c3cccnc3c2O)n[nH]1 | 4.80 | 
COc1ccc(C(=O)[C@H]2C[C@@H]2CN(Cc2ccccn2)Cc2ccccn2)cc1 | 4.40 | 
COc1ccc(C)cc1-c1csc(NC(=O)C(C)n2ccnc2)n1 (stereo not given) | 7.40 | 
CC1CN(S(=O)(=O)c2ccc(NC(=O)c3cc(C4CC4)nc4c3cnn4C(C)C)cc2)CC(C)O1 (stereo not given) |  | > 100 µM (inactive)
COc1ccccc1C1CC(c2ccc(NS(C)(=O)=O)cc2)=NN1C(=O)c1cccs1 (stereo not given) | 4.60 | 
Cc1ccc(Nc2nc(N)nc(CNC(c3nc4ccccc4[nH]3)C(C)C)n2)cc1 (stereo not given) | 4.30 | 
CCn1nccc1CN(C)C(=O)C=Cc1ccc(Cl)cc1 | 6.49 | 
NC(=O)c1ccc(-c2cccc(OCCN3CCN(C4CCCCC4)CC3)c2)cc1 | 4.40 | 

SMILES | pIC50 | IC50
COc1ccc(CN2CCCCC2c2nc(-c3cccnc3)no2)cc1 (stereo not given) | 6.70 | 
O=C(COc1ccccc1)Nc1ccccc1C(=O)Nc1nccs1 |  | > 100 µM (inactive)
N#Cc1cccc(CN2CCC(c3nc(-c4ccc(C(F)(F)F)nc4)no3)CC2)c1 |  | > 100 µM (inactive)
Cc1nc(C(=O)Nc2ccc3c(c2)OCO3)nn1-c1ccc(Cl)cc1 | 4.49 | 
O=C(NCCNc1noc(-c2ccc([N+](=O)[O-])cc2)n1)c1ccc(Cl)cc1 |  | > 100 µM (inactive)
N#Cc1cc(-c2ccnc(Nc3cccc(CN4CCOCC4)c3)n2)ccc1NCCN | 4.49 | 
Cn1nc(C(=O)N2CCc3ccccc32)c2c1CCS(=O)(=O)C2 |  | > 100 µM (inactive)
Cn1ccnc1-c1nc(NCc2ccccc2Cl)cc(C2CC2)n1 | 4.40 | 
CCC(CC)C(=O)Nc1ccc(-c2nnc(-c3ccc(OC)cc3)o2)cc1 | 4.89 | 
CCc1cccc(CC)c1-n1c(SCC(=O)NC(=O)NCc2ccco2)nnc1-c1cccnc1 | 6.00 | 
Cc1cccnc1CN1CCN(CCCOc2ccc(-c3ccc(C(N)=O)cc3)cc2)CC1 |  | > 100 µM (inactive)
O=C(Nc1ccc(Br)cn1)c1ccc(Cn2cnc([N+](=O)[O-])n2)cc1 |  | > 100 µM (inactive)
Nc1nonc1-c1nc2cncc(C(=O)N3CC[C@H](N)C3)c2n1CC1CC1 | 4.89 | 
Cc1nc2c(-c3cccs3)c(C)nn2c(NCCO)c1C |  | > 100 µM (inactive)
COc1cccc(-c2cc(C(F)(F)F)nc(-n3ccc([N+](=O)[O-])n3)n2)c1 |  | > 100 µM (inactive)
Cc1cc(C)c(C#N)c(SCC(=O)c2ccc3c(c2)OCO3)n1 |  | > 100 µM (inactive)
COc1ccnc2[nH]cc(-c3cc(C(=O)N[C@H](CO)c4ccccc4)co3)c12 | 6.10 | 
Nc1nc(-c2ccccn2)nc(N)c1Cc1c(F)cccc1Cl |  | > 100 µM (inactive)
CCn1c(NC(=O)Cc2ccc(F)cc2)nc2ccccc21 | 4.60 | 
O=C(CN(Cc1ccccn1)Cc1ccccn1)NCc1ccc2c(c1)OCO2 | 4.00 | 
O=C(c1cccc(Nc2ncc(-c3ccc4c(c3)OCO4)cn2)c1)N1CCOCC1 | 4.70 | 
Cc1ccc2sc(NC(=O)Cn3cnc([N+](=O)[O-])n3)nc2c1 |  | > 100 µM (inactive)
Nc1nc(-c2ccccc2)cc(-c2nc3ncccc3[nH]2)n1 |  | > 100 µM (inactive)
COc1ccc([N+](=O)[O-])cc1NC(=O)c1cc(Cl)ccc1O |  | > 100 µM (inactive)
Cc1ccc(NC(=O)c2ccc([N+](=O)[O-])s2)cc1S(=O)(=O)N1CCOCC1 | 4.70 | 

SMILES | pIC50 | IC50
COc1ccc(C(=O)NC2CCN(CCn3c(=O)ccc4ncc(F)cc43)CC2)cc1Cl | 4.80 | 
O=c1[nH]cnc2c([C@@H]3O[C@H](CO)[C@@H](O)[C@H]3O)[nH]nc12 |  | > 100 µM (inactive)
Cc1c(C(=O)NCCCCn2ccnc2)oc2c(C)cccc12 | 7.00 | 
O=S(=O)(c1ccccc1C(F)(F)F)N1CCN(Cc2ccc(-n3ccnc3)cc2)CC1 | 7.00 | 
Cc1cc(C)n(-c2nc(NC(C)(C)C)nc(N3CCOCC3)n2)n1 |  | > 100 µM (inactive)
O=c1cc(NCCCNC2CCOc3c(I)cc(Cl)cc32)[nH]c2ccccc12 (stereo not given) | 4.80 | 
O=c1ccn(-c2ccc([N+](=O)[O-])cc2Cl)c2ccc(F)cc12 | 4.80 | 
Cc1ccc(S(=O)(=O)Nc2ccc(CN3CCN(C(=O)c4cccc(C)c4)CC3)cc2)cc1 | 4.10 | 
N#Cc1cccc(CN2CCC(N(Cc3cccnc3)C(=O)c3cc(F)c(F)cc3F)CC2)c1 | 7.30 | 
O=C(c1cnn(-c2ccccc2)n1)N1CCCC(n2ccnc2)C1 (stereo not given) | 7.10 | 
CCOc1ccc(NC(=O)C=Cc2ccc(CC)o2)cc1 |  | > 100 µM (inactive)
CN(Cc1ccccc1)Cc1nnnn1C1CCN(Cc2ccc(-n3ccnc3)cc2)CC1 | 7.30 | 
Cc1ccccc1NS(=O)(=O)c1ccc2[nH]cc(C(=O)NC3CCCC3)c(=O)c2c1 | 4.89 | 
Cc1nn(-c2ccccc2)nc1CNC(=O)CN(Cc1ccccn1)Cc1ccccn1 | 4.60 | 
O=C(NNC(=O)c1ccccn1)c1ccc(-c2ccccc2)cc1 | 4.49 | 
Cc1ccc(Nc2nc(C3CCCN3Cc3ccn[nH]3)cs2)nc1 (stereo not given) | 5.20 | 
CN(Cc1cc2ccccc2s1)c1ncc2c(N)nc(N)nc2n1 |  | > 100 µM (inactive)
CCOC(=O)c1noc(N)c1-c1ccccc1 |  | > 100 µM (inactive)
CCc1ccccc1[C@@H](C)NC(=O)c1cnc2c(cnn2CC)c1NC1CCN(C(N)=O)CC1 | 4.10 | 
NS(=O)(=O)c1ccc(Nc2nccc(-c3cnn4ncccc34)n2)cc1 |  | > 100 µM (inactive)
CCN(CC)c1nc(Nc2ccncc2)nc2ccccc12 |  | > 100 µM (inactive)
c1ccc(-c2nc(NC3CCCC3)c3ccccc3n2)nc1 |  | > 100 µM (inactive)
CN1CCN(c2nc(-c3ccc(Cl)cc3)c3c(N)n(C)nc3n2)CC1 |  | > 100 µM (inactive)
COc1ccc(S(=O)(=O)NCc2ccc(-c3ccc(CN(C)CCO)cc3)cc2)cc1 | 4.80 | 
CC(C)(C)C(O)(CCc1ccc(Cl)cc1)Cn1cncn1 (stereo not given) | 6.89 | 
